The data set can be described thus: Potentiometric binding isotherms of surfactants to polyethylene oxide-block-poly(sodium methacrylate). It is filed as physicochemical. The conditions noted are these: FIG. 1. From the text: While not wishing to be bound by any particular theory, it is believed that the above-described surfactants and block copolymers of opposite charge form stable complexes due to cooperative binding. (See, e.g., Goddard, In Interactions of Surfactants with Polymers and Proteins. Goddard and Ananthapadmanabhan, Eds., pp. 171 et seq., CRC Press, Boca Raton, Ann Arbor, London, Tokyo, 1992). Cooperative binding occurs in the sense that binding of surfactant molecules to the block copolymer is enhanced by the presence of other molecules of the same or a different surfactant already bound to the same copolymer. According to the cooperative binding mechanism which is believed to underlie this invention, surfactant binds electrostatically to the oppositely charged P-type segments of the block copolymer to form supramolecular complexes. […]
B. The binding isotherms of cetylpyridinium bromide (Sigma Co.) and dodecylpyridinium bromide (Sigma Co.) with the polyethylene oxide-block-poly(sodium methacrylate) copolymer were determined potentiometrically by using the following ion-selective electrode: Ag/AgCl | 1 M NH4NO3 agar bridge | reference solution (surfactant, 2.5·10^−4 M) | PVC membrane | sample solution | 1 M NH4NO3 agar bridge | Ag/AgCl. […] The electromotive force (emf) of the cell was measured with a digital Radiometer pHM-83 pH-meter. […]

Turning to `CCCCCCCCCCCC[n+]1ccccc1.[Br-]` [dodecylpyridinium bromide], the “stability of the complex with the block copolymer relative to cetylpyridinium bromide” value is “decreases the stability of the complex more than ten-fold”.

These data come from patent US7169411B1, “Composition for delivery of biological agents and methods for the preparation thereof” (The University of Nebraska Board of Regents, priority 1997, dated 2007).
